The test system of this experiment is A375 Sensitive cells. The experiment is described as follows: Viability test, trypan blue exclusion, A375 Sensitive cells. The format is cell-based, human. To be noted: Homo sapiens, A-375, viable cells as percentage of DMSO control. In a few lines: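 A375 (B-Raf, CDKN2A, PTEN mutant) cells were exposed to compounds at 5.0 or 10 μM for 24 or 48 hr; CRO15 also at 0.5–50 μM for 48 hr or 5 μM for 2–48 hr; DMSO control. Viable cells were counted by trypan blue exclusion, as % of control. Three experiments in triplicate.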

[1] abbreviates: 24 h, read-out: Viab A375 5 μM/ 24 h.
Where [2] appears, read: 48 h, read-out: Viab A375 5 μM/ 48 h.
Where [3] appears, read: 24 h, read-out: Viab A375 10 μM/ 24 h.
Where [4] appears, read: 48 h, read-out: Viab A375 10 μM/ 48 h.

SMILES strings stand for the structures. Like-named read-outs stand apart in the source and are kept apart here.

In the case of `Nc1nc(Nc2ccccc2SSc2ccccc2Nc2nc(N)nc(-c3ccc(C(F)(F)F)cc3)n2)nc(-c2ccc(C(F)(F)F)cc2)n1` [MTF 394, N2,N2′-(disulfanediylbis(2,1-phenylene))bis(6-(4-(trifluoromethyl)phenyl)-1,3,5-triazine-2,4-diamine)], the viability at 5 µM was 13.1% under setting [1] and 4.4% under setting [2]. The viability at 10 µM under setting [3] worked out at 4.5% and the viability at 10 µM under setting [4] amounted to 1.1%.
The matching figures for `Nc1nc(Nc2ccccc2SSc2ccccc2Nc2nc(N)nc(-c3cccs3)n2)nc(-c2cccs2)n1` [MTF 396, N2,N2′-(disulfanediylbis(2,1-phenylene))bis(6-(thiophen-2-yl)-1,3,5-triazine-2,4-diamine)]: 19.2%, 12.1%, 7.5% and 0%.
Taken in the same sequence, the figures for `Nc1nc(Nc2ccccc2SSc2ccccc2Nc2nc(N)nc(-c3cscc3Br)n2)nc(-c2cscc2Br)n1` [MTF 397, N2,N2′-(disulfanediylbis(2,1-phenylene))bis(6-(4-bromothiophen-3-yl)-1,3,5-triazine-2,4-diamine)] were 35.4%, 33.7%, 13.4% and 7.3%.
Taken in the same sequence, the figures for `N=C(NC(=N)c1ccc([N+](=O)[O-])cc1)Nc1nc2ccccc2s1` [MTF 398, N—(N-(benzo[d]thiazol-2-yl)carbamimidoyl)-4-nitrobenzimidamide] were 91.9%, 132%, 91% and 109%.
For the compound `Nc1nc(Nc2ccccc2SSc2ccccc2Nc2nc(N)nc(-c3ccc4ccccc4c3)n2)nc(-c2ccc3ccccc3c2)n1` [MTF 443, N2,N2′-(disulfanediylbis(2,1-phenylene))bis(6-(naphthalen-2-yl)-1,3,5-triazine-2,4-diamine)], the viability at 5 µM by setting is: under setting [1], 42.3%; under setting [2], 10.2%. In addition, the viability at 10 µM by setting is: under setting [3], 13.8%; under setting [4], 7.8%.
The matching figures for `Nc1nc(Nc2ccccc2SSc2ccccc2Nc2nc(N)nc(-c3cccc([N+](=O)[O-])c3)n2)nc(-c2cccc([N+](=O)[O-])c2)n1` [MTF 445, N2,N2′-(disulfanediylbis(2,1-phenylene))bis(6-(3-nitrophenyl)-1,3,5-triazine-2,4-diamine)]: 62.6%, 35.2%, 72.4% and 16.3%.
Consider `COc1cc(-c2nc(N)nc(Nc3ccccc3SSc3ccccc3Nc3nc(N)nc(-c4cc(OC)c(OC)c(OC)c4)n3)n2)cc(OC)c1OC` [MTF 446, N2,N2′-(disulfanediylbis(2,1-phenylene))bis(6-(3,4,5-trimethoxyphenyl)-1,3,5-triazine-2,4-diamine)], for which the viability at 5 µM was found to be 62.6% under setting [1] and 13% under setting [2]. The viability at 10 µM worked out at 16.3% under setting [3] and 1.8% under setting [4].
The matching figures for `Nc1nc(Nc2ccccc2SSc2ccccc2Nc2nc(N)nc(-c3ccc4c(c3)OCO4)n2)nc(-c2ccc3c(c2)OCO3)n1` [MTF 449, N2,N2′-(disulfanediylbis(2,1-phenylene))bis(6-(benzo[d][1,3]dioxol-5-yl)-1,3,5-triazine-2,4-diamine)]: 74.2%, 67.8%, 59.1% and 53%.
Regarding `Nc1nc(Nc2ccccc2SSc2ccccc2Nc2nc(N)nc(-c3ccccc3Cl)n2)nc(-c2ccccc2Cl)n1` [MTF 450, N2,N2′-(disulfanediylbis(2,1-phenylene))bis(6-(2-chlorophenyl)-1,3,5-triazine-2,4-diamine)], the viability at 5 µM is, setting by setting: under setting [1], 38.6%; under setting [2], 54.8%. The viability at 10 µM reads like this: under setting [3], 38.3%; under setting [4], 49.9%.
